The text below walks through data of ChEMBL document CHEMBL1201862, “PubChem BioAssay data set” (2004).

Some test systems named below: RPMI-8226; CAKI-1; NCI-H460; SK-MEL-28; NCI-H522; U-251; M14; MOLT-4; A549; OVCAR-8; COLO 205; SK-MEL-5; CCRF-CEM; OVCAR-3; SNB-19; HOP-62; Malme-3M; SK-MEL-2; RXF 393; KM12.
What all share (assay): inhibition of tumour cell growth, NCI panel, 48 h

SMILES strings stand for the structures.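 A five-concentration, 48-hour dose response in 96-well plates underlies each endpoint, interpolated linearly between surrounding concentrations. At the GI50, growth is halved.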 Calls of active or inactive are those of the source. Cut-off read from the data, not from the text of the source: active = GI50 up to about 1.1 µM and inactive = higher. A value given as a limit tells only on which side of the number the result lay.

Consider `CC(=O)NC(CCCCNC(=O)OC(C)(C)C)C(=O)O` (stereo not given), for which the GI50 in the test with RPMI-8226 is > 100 µM (inactive); in the test with CAKI-1, 63.4 µM (inactive); in the test on NCI-H460, > 100 µM (inactive); in the test on SK-MEL-28, > 100 µM (inactive); with NCI-H522 it was > 100 µM (inactive); in the test with U-251, > 100 µM (inactive). Moreover, the GI50 with M14, with MOLT-4, in the test on A549, in the test on OVCAR-8, with COLO 205 and in the test on SK-MEL-5 was > 100 µM (inactive) throughout. In addition, the GI50 in the test with CCRF-CEM, in the test with OVCAR-3, in the test on SNB-19, with HOP-62 and in the test on Malme-3M was > 100 µM (inactive) each time.

Regarding `COc1ccc(NC(=S)NNC(=O)c2nsc3ccccc23)cc1`, the GI50 with RPMI-8226 is 22.3 µM (inactive); in the test on NCI-H460, 33.5 µM (inactive); in the test with SK-MEL-2, 25.1 µM (inactive); in the test on SK-MEL-28, 34.3 µM (inactive); with RXF 393 it was 22 µM (inactive); in the test with KM12, 37.3 µM (inactive). In addition, the GI50 is 40.8 µM (inactive) with U-251; 17.8 µM (inactive) in the test on M14; 24.5 µM (inactive) in the test with MOLT-4; 37.2 µM (inactive) in the test with A549; 43.7 µM (inactive) with OVCAR-8; 43.9 µM (inactive) in the test with COLO 205. In addition, the GI50 in the test on SK-MEL-5 is 30.8 µM (inactive); with OVCAR-3, 22.2 µM (inactive); in the test on SNB-19, 26.9 µM (inactive); with HOP-62, 43.5 µM (inactive).

For the compound `Clc1ccc(C2SCc3nc4ccccc4n32)cc1` (stereo not given), the GI50 is 14.9 µM (inactive) in the test on RPMI-8226; 16.8 µM (inactive) in the test on CAKI-1; 28.9 µM (inactive) with NCI-H460; 16 µM (inactive) in the test with SK-MEL-2; 21.2 µM (inactive) with SK-MEL-28; 14.4 µM (inactive) with NCI-H522. Also, the GI50 in the test on U-251 was 24 µM (inactive); in the test with M14 it was 18.5 µM (inactive); with MOLT-4, 18 µM (inactive); with OVCAR-8 it was 29.1 µM (inactive); in the test with COLO 205, 16.5 µM (inactive); in the test on SK-MEL-5 it was 10.3 µM (inactive). Moreover, the GI50 with CCRF-CEM is 23.2 µM (inactive); with OVCAR-3, 24.8 µM (inactive); in the test on SNB-19, 14.8 µM (inactive); in the test on Malme-3M, 11.1 µM (inactive).

For the compound `Oc1nc2c(c(-c3ccccc3Cl)n1)COC/C2=C\c1ccccc1Cl`, the GI50 in the test with RPMI-8226, with CAKI-1, with NCI-H460, with SK-MEL-2, with SK-MEL-28 and in the test on RXF 393 was > 100 µM (inactive) throughout. The GI50 was > 100 µM (inactive) with KM12; > 100 µM (inactive) in the test on U-251; > 100 µM (inactive) with M14; 55.5 µM (inactive) in the test on MOLT-4; > 100 µM (inactive) in the test with OVCAR-8; > 100 µM (inactive) in the test with COLO 205. For the same compound, the GI50 was > 100 µM (inactive) in the test with SK-MEL-5; 49.3 µM (inactive) with CCRF-CEM; > 100 µM (inactive) in the test with OVCAR-3; > 100 µM (inactive) in the test on SNB-19; > 100 µM (inactive) in the test with HOP-62.

For the compound `COc1ccc(C[C@H](N)C(=O)N2C[C@@H](CO)C[C@@H](n3cnc4c(N(C)C)ncnc43)C2)cc1`, the GI50 with RPMI-8226, with CAKI-1, in the test with NCI-H460, in the test with SK-MEL-2, in the test on SK-MEL-28 and in the test on NCI-H522 was > 100 µM (inactive) each time. The GI50 in the test on KM12, in the test with U-251, with M14, with MOLT-4, in the test with A549 and in the test on OVCAR-8 was > 100 µM (inactive) in each case. Moreover, the GI50 in the test on SK-MEL-5, with CCRF-CEM, in the test with OVCAR-3, in the test on SNB-19, in the test with HOP-62 and in the test on Malme-3M was > 100 µM (inactive) in each case.

For `COc1cc(C=O)cc(O)c1O`, the GI50 in the test with RPMI-8226 is > 100 µM (inactive); in the test with NCI-H460, 76.6 µM (inactive); with SK-MEL-28 it was > 100 µM (inactive); in the test with NCI-H522 it was 99.8 µM (inactive); in the test on RXF 393, > 10 µM (inactive); with KM12 it was > 100 µM (inactive). In addition, the GI50 in the test with U-251, in the test on M14, with MOLT-4, with A549, with OVCAR-8 and in the test on COLO 205 was > 100 µM (inactive) each time. The GI50 in the test on CCRF-CEM was 38.9 µM (inactive); in the test with OVCAR-3, > 100 µM (inactive); in the test with SNB-19, > 100 µM (inactive); in the test on HOP-62 it was > 100 µM (inactive); in the test with Malme-3M, > 100 µM (inactive).

For the compound `COc1ccc2c(c1)c1c(n2CCN2CCCCC2)-c2cccc(OC)c2CC1`, the GI50 is 11.5 µM (inactive) with RPMI-8226; 16.4 µM (inactive) in the test with CAKI-1; 19.9 µM (inactive) in the test on NCI-H460; 17.4 µM (inactive) in the test on SK-MEL-2; 15.4 µM (inactive) with SK-MEL-28; 3.82 µM (inactive) in the test on NCI-H522. The GI50 in the test on KM12 was 13 µM (inactive); with U-251, 13.1 µM (inactive); with M14, 12 µM (inactive); with MOLT-4, 16.4 µM (inactive); with A549 it was 27.9 µM (inactive); in the test with OVCAR-8 it was 16.9 µM (inactive). The GI50 is 16.7 µM (inactive) in the test on COLO 205; 18.2 µM (inactive) in the test on SK-MEL-5; 4.27 µM (inactive) in the test with CCRF-CEM; 17.2 µM (inactive) in the test with OVCAR-3; 13.4 µM (inactive) in the test with SNB-19; 16.7 µM (inactive) with HOP-62.

For the compound `O=C1OC2CC=CC1C2` (stereo not given), the GI50 in the test with RPMI-8226, in the test on NCI-H460, with SK-MEL-2, with SK-MEL-28, in the test on NCI-H522 and in the test with RXF 393 was > 100 µM (inactive) throughout. The GI50 with KM12, in the test on U-251, in the test with MOLT-4, in the test on A549, in the test on OVCAR-8 and in the test with COLO 205 was > 100 µM (inactive) each time. Further, the GI50 in the test on SK-MEL-5, with CCRF-CEM, with OVCAR-3, in the test on SNB-19, in the test on HOP-62 and in the test on Malme-3M was > 100 µM (inactive) each time.

Regarding `Cc1cn(C2CC(O)C(Cn3cc(Cn4nc(Br)c(=O)[nH]c4=O)nn3)O2)c(=O)[nH]c1=O` (stereo not given), the GI50 with RPMI-8226, in the test on CAKI-1, with SK-MEL-2, in the test on SK-MEL-28, in the test on RXF 393 and with KM12 was > 100 µM (inactive) in each case. The GI50 in the test on U-251, with M14, with MOLT-4, in the test with A549, in the test on OVCAR-8 and in the test with COLO 205 was > 100 µM (inactive) in each case. Also, the GI50 in the test with SK-MEL-5 is > 100 µM (inactive); with CCRF-CEM it was 0.332 µM (active); with OVCAR-3, > 100 µM (inactive); in the test on SNB-19 it was > 100 µM (inactive); in the test with HOP-62, > 100 µM (inactive); in the test with Malme-3M, 78 µM (inactive).

`CSCCC(NOC(=O)Cc1ccccc1)P(=O)(O)c1ccccc1` (stereo not given): the GI50 with RPMI-8226, in the test on CAKI-1, in the test on NCI-H460, with SK-MEL-2, in the test with SK-MEL-28 and in the test on NCI-H522 was > 100 µM (inactive) each time. The GI50 with U-251, with M14, in the test with MOLT-4, in the test with A549, in the test with OVCAR-8 and in the test with COLO 205 was > 100 µM (inactive) each time. For the same compound, the GI50 with SK-MEL-5, with CCRF-CEM, in the test on OVCAR-3, in the test on SNB-19 and in the test on HOP-62 was > 100 µM (inactive) in each case.

`Nc1ncnc2c1nnn2C1OC(CO)C(O)C1O` (stereo not given): the GI50 in the test on RPMI-8226 was 1.88 µM (inactive); in the test on CAKI-1, 4.5 µM (inactive); in the test on NCI-H460 it was 2.13 µM (inactive); in the test with SK-MEL-2 it was 1.3 µM (inactive); in the test on SK-MEL-28, 12.4 µM (inactive); in the test with NCI-H522 it was 1.87 µM (inactive). The GI50 was 4.21 µM (inactive) with KM12; 7.28 µM (inactive) in the test on U-251; 5.41 µM (inactive) in the test on MOLT-4; 3.65 µM (inactive) in the test with A549; 2.87 µM (inactive) in the test on OVCAR-8; 3.05 µM (inactive) with COLO 205. Besides, the GI50 is 4 µM (inactive) with SK-MEL-5; 3.23 µM (inactive) in the test on CCRF-CEM; 5.5 µM (inactive) in the test on OVCAR-3; 5.66 µM (inactive) with SNB-19; 6.05 µM (inactive) in the test on HOP-62; 3.58 µM (inactive) in the test with Malme-3M.
